Results: PubChem BioAssay AID179 (DTP/NCI, 2004)
Several values for one entry are separate records, joined by “and”; a condition that tells them apart may be missing. Identical values can stand only once. Activity calls are given as the source filed them.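 How the source made its calls: active means compounds giving half or more protection of infected cells from virus-caused growth loss, again on retest; inactive means the rest.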 Where a SMILES comes first, the peptide text is derived from it. Bridges are numbered along the chain shown (N, C = ends). The star is where a group is joined. Cbz = O=C(OCc1ccccc1)*; OBn = c1ccc(CO*)cc1

System: CEM cells HIV-1 protection, formazan growth assay
Assay: NCI AIDS Antiviral Assay
Conditions: for IC50: measured here: growth of uninfected CEM cells
Procedure, shortened: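 Five concentrations of each compound were applied to infected and uninfected human CEM cells. Protection from HIV-1 was judged from growth measured with a soluble formazan assay.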

| SMILES | EC50 [µM] | IC50 | outcome |
| --- | --- | --- | --- |
| COc1cc(/C=C(\C#N)C(N)=C(C#N)C#N)cc(O)c1O | > 47.9 | > 47.9 µM |  |
| CC(C)(C)c1cc(C(=O)Nc2cc(Br)c(Br)cc2S(N)(=O)=O)cc(C(C)(C)C)c1O | > 200 | 8.13 µM |  |
| Cc1cn(C2CCN(CC3COC(C)(C)O3)O2)c(=O)[nH]c1=O (stereo not drawn) | > 200 | > 200 µM |  |
| CCN(CC)CCN(C)c1ccc(/C=C/c2ccnc3ccccc23)cc1 |  |  | inactive |
| N#Cc1c(NC(=S)Nc2ccccc2)sc2c1CCCC2 | > 200 | > 200 µM |  |
| CN(C)N1C(=O)c2c(Cl)c(Cl)c(Cl)c(Cl)c2C1=O | > 200 | 91.2 µM |  |
| CCCCCC=C(c1cc(Br)c(OC)c(C(=O)OC)c1)c1cc(Br)c(OC)c(C(=O)OC)c1 | 26.9 | 87.1 µM |  |
| C[C@H](NC(=O)OC1C2C=CC(O)C1CC2)c1ccccc1 (stereo partly drawn) | > 871 | 776 µM |  |
| O=C(CSc1nnc(Cc2ccccc2)o1)Nc1cccc(Cl)c1 | > 100 | 49 µM |  |
| COC(=O)[C@]1(C)CC[C@]2(C)CC[C@]3(C)C4CC[C@@]5(COC(C)=O)C(CCC(=O)[C@@H]5C)[C@]4(C)CCC3(C)[C@@H]2C1 (stereo partly drawn) | > 33.9 | 15.8 µM |  |
| c1ccc2c(c1)n1c(N3CCCC3)[n+]3ccccc3c1c1c3cccc[n+]3c(N3CCCC3)n21 | 57.5 | > 100 µM |  |
| CC(NC(=O)C(C)NC(=O)C(CC(N)=O)NC(=O)CN)C(=O)NC(CO)C(=O)NC(C)C(=O)NC(CCCN=C(N)N)C(=O)NC(CCCN=C(N)N)C(N)=O (stereo not drawn) (H-GNAASARR-NH2; configuration not given here) |  |  | inactive |
| c1ccc(CN2CCC3(N4CCOCC4)C(C2)N=NN3c2ccccc2)cc1 (stereo not drawn) | > 200 | 110 µM |  |
| COc1ccc(/C=C2\N=C(C)OC2=O)cc1 | > 437 | > 437 µM |  |
| CC(=O)[O-].N.N.N.N.N.[Co+3].[O-][Cl+3]([O-])([O-])[O-] |  |  | inactive |
| N#CC1C(=O)NC(=O)C(C#N)C12CCCc1sccc12 (stereo not drawn) | > 871 | 832 µM |  |
| CCOC(=O)/C(C#N)=N\Nc1ccc(-n2c(C)nc3ccc(Br)cc3c2=O)cc1 | > 182 | 75.9 µM |  |
| COc1cccc(C2c3cc4c(cc3OC(NNC(N)=O)C2C)OCO4)c1OC (stereo not drawn) | > 200 | 8.13 µM |  |
| Cc1cc2c(c3nocc13)C(=O)c1ccccc1C2=O |  |  | inactive |
| C[C@]12CC[C@H]3[C@@H](C[C@@H](O)[C@]45C[C@@H]4CC[C@]35C)[C@@H]1CC[C@@]21C=CC(=O)O1 | > 200 | 95.5 µM |  |
| O=C(CSC(=S)N1CCCCC1)Nc1nc2c(s1)CCCC2 | > 38 | > 38 µM |  |
| N#Cc1c(Cl)/c(=C/O)c(=O)n2c1nc1ccccc12 | > 200 | 110 µM |  |

| SMILES | EC50 [µM] | IC50 | outcome |
| --- | --- | --- | --- |
| CC(C)N(C(=O)C12C3(C(=O)OC(C)(C)C)C4C5(C#N)C3C1(C(=O)OC(C)(C)C)C5C42C(=O)OC(C)(C)C)C(C)C (stereo not drawn) | > 200 | 23.4 µM |  |
| C=C(Cc1ccc(O)cc1)C(=C)Cc1ccc(O)cc1 | > 200 | 69.2 µM |  |
| COC(=O)C1C(C(=O)OC)C2(OC(c3ccc(Cl)cc3)=CC2=O)C12OC(c1ccc(Cl)cc1)=CC2=O (stereo not drawn) | > 200 | 4.27 µM |  |
| COC(=O)C1CCC(=O)NCCCCC(NC(=O)C(CC(=O)OCc2ccccc2)NC(=O)OCc2ccccc2)C(=O)N1 (stereo not drawn) (Cbz-Asp(OBn)-Lys-Glu-OMe; lactam 2-3; configuration not given here) | > 200 | > 200 µM |  |
| C1=Nc2ccccc2/C1=C/c1c[nH]c2ccccc12 | 0.0631 | > 200 µM |  |
| O=C1c2ccccc2C(=O)c2c1oc1cc(O)c(Cl)cc21 | > 16.6 | > 16.6 µM |  |
| O=C(O)CS(=O)(=O)O | > 200 | > 200 µM |  |
| O=C1C(N=Nc2ccc(Br)cc2)Sc2nc3ccccc3n21 (stereo not drawn) | > 200 | > 200 µM |  |
| Nc1ccn(CC(=O)NCCCCO)c(=O)n1 | > 200 | > 200 µM |  |
| CCN(CC)C(=S)N/N=C(/c1ccccc1)c1ccccn1 | > 200 | 1.51 µM |  |
| O=C(Nc1ccn(C2CCC(COC(c3ccccc3)(c3ccccc3)c3ccccc3)O2)c(=O)n1)c1ccccc1 (stereo not drawn) | > 200 | 9.77 µM |  |
| O=c1c2c(c1=O)C1(SCCCS1)c1cc(Cl)ccc1O2 | > 200 | > 200 µM |  |
| C=CC(=O)N1C/C(=C\c2ccc(Cl)c(Cl)c2)C(=O)/C(=C/c2ccc(Cl)c(Cl)c2)C1 | > 5.89 | 0.0372 µM |  |
| Cc1cc2nn(C3CCCCO3)nc2cc1C (stereo not drawn) | > 200 | > 200 µM |  |
| CC(=O)N1C(=N)SCC1C(N)=O (stereo not drawn) | 427 | 479 µM |  |
| CCC(=N\N=C(N)N)/C(CC)=N/N=C(N)N | > 562 | > 562 µM |  |
| COc1ccc(CCN(C)CCCC2(C#N)c3ccccc3-c3ccccc32)cc1OC | > 60.3 | 47.9 µM |  |
| CO[C@@](c1ccccc1)(c1nc(C#N)c(N)o1)C(F)(F)F | 79.4 | 115 µM |  |
| CCOc1cc2c(cc1O)C=C[C@@H]1[C@@H]2CC[C@]2(C)[C@@H](O)CC[C@@H]12 | > 2 | 0.589 µM |  |
| O=C1CC(c2ccc(Cl)cc2)NC(=O)N1CCN1CCCC1 (stereo not drawn) | > 200 | > 200 µM |  |
| CCCCCCCCCCCCCCCCC(=O)NCC(=O)NCC(=O)NC(Cc1ccccc1)C(=O)Oc1ccc([N+](=O)[O-])cc1 (stereo not drawn) | > 200 | 18.2 µM |  |
| O=C1c2c(ccc3c2CCCC3)CC12Cc1ccc3c(c1C2=O)CCCC3 | > 200 | > 200 µM |  |

| SMILES | EC50 [µM] | IC50 | outcome |
| --- | --- | --- | --- |
| CN(C)C=Nc1cccc2cnccc12 | > 200 | 166 µM |  |
| Cc1ccc2nc(-c3ccccc3)c(N=O)n2c1 | > 200 | 170 µM |  |
| CC1=NN(c2ccccc2)C(=O)/C1=C1\SS/C(=C2\C(=O)N(c3ccccc3)N=C2C)S1 | > 100 | > 100 µM |  |
| COC(=O)C(Cc1ccc2c(c1)OCO2)(NC(=O)c1ccccc1)P(=O)(OC)OC (stereo not drawn) | > 575 | > 575 µM |  |
| COc1ccc(NCc2cc(OC)c(OC)c(OC)c2)cc1 | > 2 | 0.214 µM and 0.316 µM |  |
| COC(=O)NC(Cc1ccccc1)NC(C)=O (stereo not drawn) | > 200 | > 200 µM |  |
| CC(O)(c1ccc(OCCC[N+](C)(C)C)cc1)C(C)(O)c1ccc(OCCC[N+](C)(C)C)cc1 (stereo not drawn) | > 1820 | 794 µM |  |
| CN1Cc2ccccc2/C=C\c2ccccc21 | > 200 | 132 µM |  |
| Cc1c(C2Cc3ccccc3N2C(=O)/C=C\C(=O)O)c2ccccc2n1C (stereo not drawn) | > 692 | 14.5 µM |  |
| NC(CCCC(N)P(=O)(O)O)P(=O)(O)O (stereo not drawn) |  |  | inactive |
| C1=CC2C(c3cn(-c4ccccc4)nc31)C1C2C2C=CC3C(C=C2)C31 (stereo not drawn) | > 3.24 | > 3.24 µM |  |
| O=C(C=P(c1ccccc1)(c1ccccc1)c1ccccc1)c1ccccc1-c1ccccc1C(=O)C=P(c1ccccc1)(c1ccccc1)c1ccccc1 | > 1 | 0.107 µM |  |
| CCCCCCCCCCCCCC(=O)NO | > 20.4 | > 20.4 µM |  |
| C=C(C)C#CC1(O)C=C(OC)C(OC)=CC1=O (stereo not drawn) | > 200 | 20.9 µM |  |
| ClC1C(Cl)C2CC1C1CC3OC3C21 (stereo not drawn) | > 200 | > 200 µM |  |
| O=C(O)[C@@H]1CSCN1C(=O)c1cccnc1SSc1ncccc1C(=O)N1CSC[C@H]1C(=O)O | > 200 | > 200 µM |  |
| COC(=O)/C(C#N)=C\NC(=S)NNC(C)=O | > 200 | > 200 µM |  |
| CC1(C)C(=O)C(C)(C)C1=S | > 219 | > 219 µM |  |
| Cc1cccc(-n2c(=S)[nH]c3c(sc(=O)n3-c3ccccc3C)c2=O)c1 | > 2 | > 2 µM |  |
| CCN(CC)P1(=S)OCC(C)O1 (stereo not drawn) | > 324 | 309 µM |  |
| COc1ccc(/C=C(/C#N)C(N)=O)c(OC)c1 | > 200 | 60.3 µM |  |
| O=C(O)c1ccc(C2=Cc3cc(Cl)ccc3OC2)cc1 | > 66.1 | > 66.1 µM |  |

| SMILES | EC50 [µM] | IC50 | outcome |
| --- | --- | --- | --- |
| CCOC(=O)CCC(=O)Oc1ccc2c(c1OC(=O)CCC(=O)OCC)C(=O)c1ccccc1C2=O | > 87.1 | 46.8 µM |  |
| COc1nc2c(nnn2C2OC(CO)C(O)C(O)C2O)c(=O)n1C (stereo not drawn) |  |  | inactive |
| COc1ccc(C(C#N)NNC(=O)c2ccccc2O)cc1OC (stereo not drawn) | > 79.4 | 4.07 µM |  |
| CC(=O)OCC1OC(OCCCOP(=O)(OCCC#N)OCC2OC(n3cnc4c(N)ncnc43)C(OC(=O)c3ccccc3)C2OC(=O)c2ccccc2)C(OC(C)=O)C(OC(C)=O)C1OC(C)=O (stereo not drawn) | > 100 | > 100 µM |  |
| O=c1oc2ncccc2n1Cc1ccc([N+](=O)[O-])cc1 | > 200 | > 200 µM |  |
| Cc1cn(C(CO)OC(CO)CP(=O)(O)O)c(=O)[nH]c1=O (stereo not drawn) | > 200 | > 200 µM |  |
| O=C(/C=C/c1ccc(O)c(O)c1)OCCOC(=O)/C=C/c1ccc(O)c(O)c1 | > 200 | 10 µM |  |
| CCNCCNC(=O)c1ccc(I)cc1 |  |  | inactive |
| O=[N+]([O-])c1cnn(C2=CNc3ccccc3N=C2)c1 | > 7.41 | > 7.41 µM |  |
| C[n+]1c2ccccc2c(CNC(CCC(N)=O)C(=O)O)c2ccccc21 (stereo not drawn) |  |  | inactive |
| CC(NC1=NCCO1)c1ccsc1 (stereo not drawn) | > 200 | 64.6 µM |  |
| C/C=C1\CNC1C(=O)O (stereo not drawn) | > 200 | > 200 µM |  |
| Cc1ccc(S(=O)(=O)N2CCC2c2ccccc2)cc1 (stereo not drawn) |  |  | inactive |
| NC1=NC(OCC2(CO)CCC2)C=C(NCC2(CO)CCC2)N1 (stereo not drawn) | > 200 | > 100 µM |  |
| N=C1C(=O)NC(=O)C1c1ccccc1 (stereo not drawn) | > 200 | 151 µM |  |
| O=C(CN1CCN(C(=O)OCc2ccccc2)CCN(CC(=O)N2CCCCC2)CCN(C(=O)OCc2ccccc2)CC1)N1CCCCC1 | > 200 | 10.2 µM |  |
| C=CCN(c1cc(OC)c(NC(C)=O)cc1[N+](=O)[O-])S(C)(=O)=O | > 200 | > 200 µM |  |
| CC1(C)O[C@@H](CP(c2ccc3ccccc3c2)c2ccc3ccccc3c2)[C@H](CP(c2ccc3ccccc3c2)c2ccc3ccccc3c2)O1 | > 200 | 129 µM |  |
| Cc1nc(NC(C)(CO)CO)nc2c1C(=O)Nc1ccccc1N2 | > 200 | > 200 µM |  |
| COc1ccc(N2CCCSC2=S)cc1 | > 200 | > 200 µM |  |
